One assay has as its system MV-4-11 cells. Put plainly: Oncology cell growth assay MV-4-11 (CellTiter Glo). It counts as cell-based. The settings on record: Homo sapiens, MV4-11, 72 h; MV-4-11, 3d growth; read-out: Cell activity (IC50 μM) MV-4-11 3d-Growth. A digest of the protocol: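 MV-4-11 AML cells (MLL-AF4), 3000 per well, exposed to 8-point 1:3 compound titration from 10 μM top concentration (0.2% DMSO) for 72 h. Viability by CellTiter Glo luminescence, normalized to DMSO controls; pIC50 from four-parameter curve fit.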
Background: In ATP-based viability assays light output follows the ATP content of the culture.

A further assay deals with BRD4-BD12 (1-477) (Homo sapiens (Human), UniProt O60885). Put plainly: Alphascreen binding assay BRD4-BD12. The settings on record: BRD4(1 2) H4; read-out: Biochemical activity (IC50 μM) BRD4(1 2) H4. An outline of the steps: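 First, compound was preincubated 1 h at room temperature with the His-tagged BRD4 protein (BD1 44-164 or tandem BD12 1-477) and acetylated H4 peptide. Next, donor and acceptor beads were added at 7.5 μg/ml final. After 30 min, AlphaScreen emission was recorded.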
In general terms: In Alpha technology, singlet oxygen from a donor bead excites a nearby acceptor bead.

The next assay has as its system bromodomain. As to the kind of experiment: at least one of the bromodomain cell assays of Example 57. It counts as cell-based. As to conditions: at least one of the bromodomain cell assays described in Example 57; read-out: IC50 in at least one of the bromodomain cell assays.

Drawing on US10519177B2, “Heterocyclic compounds and uses thereof” (Plexxikon Inc., priority 2013, dated 2019), this text covers IC50 for five molecules.

Usually IC50 stands for the concentration at which inhibition is half-maximal. Regarding `Cc1noc(C)c1-c1cnc2c(-c3ccc(C(C)(C)C(=O)O)cc3)cn(CC3(C)CCOCC3)c2c1` [P-0778, 2-[4-[6-(3,5-dimethylisoxazol-4-yl)-1-[(4-methyltetrahydropyran-4-yl)methyl]pyrrolo[3,2-b]pyridin-3-yl]phenyl]-2-methyl-propanoic acid], the values for the IC50 in the assay with MV-4-11 cells, at BRD4-BD12 (1-477) and in the assay on bromodomain were 1 to 10 µM, less than 1 µM and less than 10 µM, respectively.
On to `Cc1ccc(-c2cn(CC3(C)CCOCC3)c3cc(-c4c(C)noc4C)cnc23)cc1` [P-0794, 3,5-dimethyl-4-[1-[(4-methyltetrahydropyran-4-yl)methyl]-3-(p-tolyl)pyrrolo[3,2-b]pyridin-6-yl]isoxazole], for which the figures for the IC50 with MV-4-11 cells, on BRD4-BD12 (1-477) and with bromodomain were 1 to 10 µM, less than 1 µM and less than 10 µM, respectively.
In the case of `Cc1noc(C)c1-c1cnc2c(-c3ccc(C(C)(C)C)cc3)cn(CC3CCC(F)(F)CC3)c2c1` [P-0802, 4-[3-(4-tert-butylphenyl)-1-[(4,4-difluorocyclohexyl)methyl]pyrrolo[3,2-b]pyridin-6-yl]-3,5-dimethyl-isoxazole], the IC50 in the assay with MV-4-11 cells was 1 to 10 µM; at BRD4-BD12 (1-477), less than 1 µM; with bromodomain, less than 10 µM.
The like results for `Cc1ccc(-c2cn(Cc3ccccn3)c3cc(-c4c(C)noc4C)cnc23)cc1` [P-0805, 3,5-dimethyl-4-[3-(p-tolyl)-1-(2-pyridylmethyl)pyrrolo[3,2-b]pyridin-6-yl]isoxazole] were, in that order, less than 1 µM, less than 1 µM and less than 10 µM.
Take `Cc1noc(C)c1-c1cnc2c(-c3ccc(C(C)(C)C)cc3)cn([C@@H](C)c3ccccn3)c2c1` [P-0806, 4-[3-(4-tert-butylphenyl)-1-[(1S)-1-(2-pyridyl)ethyl]pyrrolo[3,2-b]pyridin-6-yl]-3,5-dimethyl-isoxazole]: the IC50 in the assay with MV-4-11 cells was 1 to 10 µM; at BRD4-BD12 (1-477), less than 1 µM; with bromodomain, less than 10 µM.
